Publication PMC7827406, “Structure–Activity Relationship (SAR) Study of Spautin-1 to Entail the Discovery of Novel NEK4 Inhibitors” (International Journal of Molecular Sciences, 2021)
Read-outs that look alike come from different tables or passages of the source.

Assays:
Assay in all cases: biochemical
Design in all cases: Eurofins KinaseProfiler full panel at Km ATP, residual kinase activity (%) relative to DMSO
ULK2(h) = target: T1, ULK2(h) (Homo sapiens, UniProt Q8IYT8)
T1 sequence (Q8IYT8 1-1036): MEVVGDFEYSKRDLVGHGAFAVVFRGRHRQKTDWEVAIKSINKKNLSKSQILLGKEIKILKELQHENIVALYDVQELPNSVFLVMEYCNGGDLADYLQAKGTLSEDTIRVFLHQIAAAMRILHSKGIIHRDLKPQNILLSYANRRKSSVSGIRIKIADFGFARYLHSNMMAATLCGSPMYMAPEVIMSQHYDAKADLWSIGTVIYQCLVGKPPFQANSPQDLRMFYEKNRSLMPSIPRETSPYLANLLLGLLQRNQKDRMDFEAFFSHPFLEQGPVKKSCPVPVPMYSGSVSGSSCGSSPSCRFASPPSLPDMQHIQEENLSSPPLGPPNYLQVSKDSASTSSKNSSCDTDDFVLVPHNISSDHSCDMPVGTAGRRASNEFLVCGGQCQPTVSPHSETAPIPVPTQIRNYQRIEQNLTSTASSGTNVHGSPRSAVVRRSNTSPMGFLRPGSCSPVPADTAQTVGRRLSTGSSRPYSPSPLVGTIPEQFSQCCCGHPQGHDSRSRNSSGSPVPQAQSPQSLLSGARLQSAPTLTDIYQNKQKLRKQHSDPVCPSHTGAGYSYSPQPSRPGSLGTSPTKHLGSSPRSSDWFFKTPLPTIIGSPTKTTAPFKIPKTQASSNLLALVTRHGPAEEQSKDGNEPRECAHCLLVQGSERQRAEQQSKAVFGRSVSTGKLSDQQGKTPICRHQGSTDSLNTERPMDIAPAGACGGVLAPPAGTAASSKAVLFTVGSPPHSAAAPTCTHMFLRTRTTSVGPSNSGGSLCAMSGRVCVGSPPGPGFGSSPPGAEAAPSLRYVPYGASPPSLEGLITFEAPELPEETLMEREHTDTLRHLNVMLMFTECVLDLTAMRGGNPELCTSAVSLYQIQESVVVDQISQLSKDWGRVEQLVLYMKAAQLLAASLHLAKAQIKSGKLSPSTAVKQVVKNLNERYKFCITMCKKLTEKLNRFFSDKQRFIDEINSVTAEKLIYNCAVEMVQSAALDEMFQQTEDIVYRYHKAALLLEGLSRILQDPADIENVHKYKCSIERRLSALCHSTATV
Experimental: (§1) Eurofins performed a “Full KP Panel [Km ATP], KinaseProfile” which contains 429 radiometric kinase activity assays. The remaining kinase activity (%) was determined after treatment with the compounds at a concentration of 10 µM (Cfr. supporting information). Since we could not confirm the interaction between Spautin-1 analogues and USP13, a kinase screening was performed using a set of four compounds (Spautin-1 and three analogues) to discover off-targets and identify kinases that are potentially responsible for the reduction in cell viability observed in our screen (Table 2). The KINOMEscan from Eurofins was performed (see Table S1). This screen consists of a competitive binding assay in which the DNA-tagged kinase is incubated with one of the compounds in the presence of immobilized active site binding ligands. Binding of the compounds to the kinase hampers the binding of the kinase to the ligands and this inhibition was quantified by qPCR. The residual kinase activity, which represents the percentage of kinase attached to the immobilized ligands, was determined for 428 kinases at a standard screening concentration of 10 µM of the compounds dissolved in DMSO [61].

[1] = target: T2, PI3 Kinase (p110d/p85a)(h) (Homo sapiens, UniProt O00329)
T2 construct: gene PIK3CD
T2 sequence (O00329 whole entry): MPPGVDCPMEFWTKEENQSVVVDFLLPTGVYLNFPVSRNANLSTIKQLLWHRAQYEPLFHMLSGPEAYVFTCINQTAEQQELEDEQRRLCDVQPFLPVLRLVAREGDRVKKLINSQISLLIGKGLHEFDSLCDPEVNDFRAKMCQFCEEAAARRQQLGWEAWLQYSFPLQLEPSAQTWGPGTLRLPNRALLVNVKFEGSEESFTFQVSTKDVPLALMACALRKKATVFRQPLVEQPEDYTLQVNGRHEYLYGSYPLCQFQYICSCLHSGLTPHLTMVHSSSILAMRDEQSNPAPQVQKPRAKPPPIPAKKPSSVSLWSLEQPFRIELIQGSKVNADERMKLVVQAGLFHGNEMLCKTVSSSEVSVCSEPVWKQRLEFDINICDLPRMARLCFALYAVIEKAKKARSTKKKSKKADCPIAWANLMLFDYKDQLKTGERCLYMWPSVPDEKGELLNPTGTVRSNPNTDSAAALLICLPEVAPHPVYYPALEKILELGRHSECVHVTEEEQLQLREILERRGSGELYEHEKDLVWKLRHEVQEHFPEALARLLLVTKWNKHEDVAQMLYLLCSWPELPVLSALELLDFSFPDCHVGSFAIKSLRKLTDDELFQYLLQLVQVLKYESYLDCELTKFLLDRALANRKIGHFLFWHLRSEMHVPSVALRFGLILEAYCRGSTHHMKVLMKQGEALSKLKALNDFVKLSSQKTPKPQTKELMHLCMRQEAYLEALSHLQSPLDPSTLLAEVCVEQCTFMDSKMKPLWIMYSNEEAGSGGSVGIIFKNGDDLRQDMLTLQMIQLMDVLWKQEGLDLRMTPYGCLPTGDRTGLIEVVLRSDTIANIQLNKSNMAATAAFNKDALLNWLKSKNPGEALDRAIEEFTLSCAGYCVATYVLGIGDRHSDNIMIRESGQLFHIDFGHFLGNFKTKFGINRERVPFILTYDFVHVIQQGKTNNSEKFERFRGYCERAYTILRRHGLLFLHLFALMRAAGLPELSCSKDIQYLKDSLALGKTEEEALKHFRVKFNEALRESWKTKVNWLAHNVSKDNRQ
T2 sequence (P27986 whole entry partner): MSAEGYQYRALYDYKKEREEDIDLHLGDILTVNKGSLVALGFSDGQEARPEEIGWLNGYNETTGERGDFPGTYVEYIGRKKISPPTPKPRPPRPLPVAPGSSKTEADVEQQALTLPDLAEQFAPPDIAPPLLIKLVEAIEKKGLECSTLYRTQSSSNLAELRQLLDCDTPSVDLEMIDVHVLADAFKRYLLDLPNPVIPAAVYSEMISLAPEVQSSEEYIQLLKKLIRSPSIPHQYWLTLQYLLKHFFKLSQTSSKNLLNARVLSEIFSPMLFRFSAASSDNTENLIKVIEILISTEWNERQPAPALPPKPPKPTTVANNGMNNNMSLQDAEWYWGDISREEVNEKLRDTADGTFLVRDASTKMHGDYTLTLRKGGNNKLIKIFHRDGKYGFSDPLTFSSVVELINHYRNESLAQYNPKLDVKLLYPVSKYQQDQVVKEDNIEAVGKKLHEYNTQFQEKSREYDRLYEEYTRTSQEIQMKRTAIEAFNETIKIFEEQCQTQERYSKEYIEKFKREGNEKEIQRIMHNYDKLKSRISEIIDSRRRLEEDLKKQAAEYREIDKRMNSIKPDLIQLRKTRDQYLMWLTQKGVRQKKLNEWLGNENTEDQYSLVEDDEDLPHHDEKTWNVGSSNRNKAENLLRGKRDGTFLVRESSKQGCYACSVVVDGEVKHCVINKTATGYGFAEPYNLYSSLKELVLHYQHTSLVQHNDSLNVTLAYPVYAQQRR
Experimental: as §1

TBK1(h) = target: T3, TBK1(h) (Homo sapiens, UniProt Q9UHD2)
T3 sequence (Q9UHD2 1-729): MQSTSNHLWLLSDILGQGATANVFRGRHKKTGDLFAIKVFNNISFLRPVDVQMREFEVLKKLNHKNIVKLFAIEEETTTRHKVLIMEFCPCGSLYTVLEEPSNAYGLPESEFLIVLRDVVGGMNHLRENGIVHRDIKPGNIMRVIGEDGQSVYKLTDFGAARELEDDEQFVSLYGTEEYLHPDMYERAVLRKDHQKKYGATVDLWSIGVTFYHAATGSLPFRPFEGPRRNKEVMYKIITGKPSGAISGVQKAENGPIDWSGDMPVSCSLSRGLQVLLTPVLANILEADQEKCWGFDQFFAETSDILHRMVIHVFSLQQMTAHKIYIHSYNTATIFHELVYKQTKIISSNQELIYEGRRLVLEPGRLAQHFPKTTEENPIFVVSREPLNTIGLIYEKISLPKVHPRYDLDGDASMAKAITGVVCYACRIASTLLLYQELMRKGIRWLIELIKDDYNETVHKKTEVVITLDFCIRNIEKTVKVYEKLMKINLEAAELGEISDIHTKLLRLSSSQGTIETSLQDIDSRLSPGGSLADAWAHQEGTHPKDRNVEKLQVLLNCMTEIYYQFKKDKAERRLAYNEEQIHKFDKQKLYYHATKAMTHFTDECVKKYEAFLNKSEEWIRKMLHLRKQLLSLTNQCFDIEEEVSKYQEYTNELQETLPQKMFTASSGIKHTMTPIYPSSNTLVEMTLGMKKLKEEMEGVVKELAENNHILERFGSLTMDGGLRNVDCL
Experimental: as §1

MRCKα(h) = target: T4, MRCKα(h) (Homo sapiens, UniProt Q5VT25)
T4 construct: gene CDC42BPA
T4 sequence (Q5VT25 whole entry): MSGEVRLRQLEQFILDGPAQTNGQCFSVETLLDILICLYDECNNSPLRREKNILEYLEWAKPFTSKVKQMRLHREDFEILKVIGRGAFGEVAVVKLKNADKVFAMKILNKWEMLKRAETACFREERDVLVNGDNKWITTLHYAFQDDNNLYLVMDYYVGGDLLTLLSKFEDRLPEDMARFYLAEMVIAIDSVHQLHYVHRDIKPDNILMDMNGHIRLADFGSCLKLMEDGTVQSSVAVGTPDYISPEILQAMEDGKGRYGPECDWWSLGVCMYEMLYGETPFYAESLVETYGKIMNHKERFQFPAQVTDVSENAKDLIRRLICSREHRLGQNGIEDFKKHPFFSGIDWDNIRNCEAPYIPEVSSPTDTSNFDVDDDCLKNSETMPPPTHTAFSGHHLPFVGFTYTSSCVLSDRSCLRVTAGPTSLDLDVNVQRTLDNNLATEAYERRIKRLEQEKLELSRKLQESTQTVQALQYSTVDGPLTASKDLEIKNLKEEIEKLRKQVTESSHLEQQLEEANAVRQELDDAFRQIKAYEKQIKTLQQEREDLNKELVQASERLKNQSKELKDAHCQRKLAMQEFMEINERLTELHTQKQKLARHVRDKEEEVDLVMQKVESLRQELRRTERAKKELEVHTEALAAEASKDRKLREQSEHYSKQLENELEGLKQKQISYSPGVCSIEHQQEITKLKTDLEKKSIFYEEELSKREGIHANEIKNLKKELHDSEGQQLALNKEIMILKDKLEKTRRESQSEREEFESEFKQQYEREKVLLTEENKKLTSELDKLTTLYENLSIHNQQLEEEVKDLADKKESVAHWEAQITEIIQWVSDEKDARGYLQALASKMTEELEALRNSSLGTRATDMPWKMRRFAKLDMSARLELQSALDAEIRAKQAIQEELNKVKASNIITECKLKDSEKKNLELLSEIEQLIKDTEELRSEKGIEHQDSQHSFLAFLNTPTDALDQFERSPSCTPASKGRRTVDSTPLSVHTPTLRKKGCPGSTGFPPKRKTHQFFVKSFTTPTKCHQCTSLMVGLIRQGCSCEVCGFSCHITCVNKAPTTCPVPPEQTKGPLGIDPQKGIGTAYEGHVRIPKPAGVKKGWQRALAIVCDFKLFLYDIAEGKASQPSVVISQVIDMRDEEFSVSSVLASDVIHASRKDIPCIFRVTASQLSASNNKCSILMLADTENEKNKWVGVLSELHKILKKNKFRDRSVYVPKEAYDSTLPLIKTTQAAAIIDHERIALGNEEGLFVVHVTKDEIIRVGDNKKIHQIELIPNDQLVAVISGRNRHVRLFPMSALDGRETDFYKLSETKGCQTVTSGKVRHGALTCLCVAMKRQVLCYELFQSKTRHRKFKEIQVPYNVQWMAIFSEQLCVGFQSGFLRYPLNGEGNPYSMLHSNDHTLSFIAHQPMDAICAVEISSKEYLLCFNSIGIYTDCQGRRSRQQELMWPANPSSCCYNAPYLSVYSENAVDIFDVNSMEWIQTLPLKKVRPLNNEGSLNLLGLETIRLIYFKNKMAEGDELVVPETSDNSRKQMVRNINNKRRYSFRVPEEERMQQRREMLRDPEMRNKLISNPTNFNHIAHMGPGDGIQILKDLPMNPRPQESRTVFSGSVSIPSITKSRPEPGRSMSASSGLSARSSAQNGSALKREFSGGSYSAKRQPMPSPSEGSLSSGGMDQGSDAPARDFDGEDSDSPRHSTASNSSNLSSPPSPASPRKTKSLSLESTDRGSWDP
Experimental: as §1

HIPK1(h) = HIPK1(h) (Homo sapiens, UniProt Q86Z02)
Sequence of HIPK1(h) (Q86Z02 whole entry): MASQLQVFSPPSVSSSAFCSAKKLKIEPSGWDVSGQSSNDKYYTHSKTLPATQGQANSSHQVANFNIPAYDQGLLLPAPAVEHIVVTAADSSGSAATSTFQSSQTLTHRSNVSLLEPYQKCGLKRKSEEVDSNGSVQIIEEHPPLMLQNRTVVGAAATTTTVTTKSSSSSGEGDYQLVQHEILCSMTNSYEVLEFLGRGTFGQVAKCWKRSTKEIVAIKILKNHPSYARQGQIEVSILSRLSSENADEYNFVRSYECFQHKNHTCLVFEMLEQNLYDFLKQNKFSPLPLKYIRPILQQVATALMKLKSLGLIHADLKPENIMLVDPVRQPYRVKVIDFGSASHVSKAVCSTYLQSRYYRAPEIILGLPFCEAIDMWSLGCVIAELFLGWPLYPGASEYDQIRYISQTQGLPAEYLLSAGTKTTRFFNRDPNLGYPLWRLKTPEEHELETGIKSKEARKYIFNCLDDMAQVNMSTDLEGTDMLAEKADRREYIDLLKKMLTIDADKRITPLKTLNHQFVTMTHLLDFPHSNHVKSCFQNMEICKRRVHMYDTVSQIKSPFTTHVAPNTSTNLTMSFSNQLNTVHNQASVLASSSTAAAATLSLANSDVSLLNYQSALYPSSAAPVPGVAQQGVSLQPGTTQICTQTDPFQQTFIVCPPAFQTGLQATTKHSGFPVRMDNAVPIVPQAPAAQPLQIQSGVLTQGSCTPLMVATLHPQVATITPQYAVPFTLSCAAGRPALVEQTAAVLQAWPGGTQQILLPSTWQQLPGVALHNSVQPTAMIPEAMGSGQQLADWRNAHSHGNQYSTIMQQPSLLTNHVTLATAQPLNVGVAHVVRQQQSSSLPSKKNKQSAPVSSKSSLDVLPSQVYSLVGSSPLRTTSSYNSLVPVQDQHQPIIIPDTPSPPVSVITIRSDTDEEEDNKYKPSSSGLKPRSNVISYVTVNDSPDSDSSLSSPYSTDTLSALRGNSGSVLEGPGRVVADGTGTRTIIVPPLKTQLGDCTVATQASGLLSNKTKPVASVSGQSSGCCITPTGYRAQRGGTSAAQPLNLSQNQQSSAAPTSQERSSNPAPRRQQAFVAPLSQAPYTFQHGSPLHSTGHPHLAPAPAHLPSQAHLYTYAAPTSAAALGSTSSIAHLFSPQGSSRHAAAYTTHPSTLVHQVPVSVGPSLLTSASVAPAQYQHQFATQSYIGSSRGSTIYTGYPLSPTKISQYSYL
Experimental: as §1

MAPKAP-K2(h) = target: T5, MAPKAP-K2(h) (Homo sapiens, UniProt P49137)
T5 construct: gene MAPKAPK2
T5 sequence (P49137 whole entry): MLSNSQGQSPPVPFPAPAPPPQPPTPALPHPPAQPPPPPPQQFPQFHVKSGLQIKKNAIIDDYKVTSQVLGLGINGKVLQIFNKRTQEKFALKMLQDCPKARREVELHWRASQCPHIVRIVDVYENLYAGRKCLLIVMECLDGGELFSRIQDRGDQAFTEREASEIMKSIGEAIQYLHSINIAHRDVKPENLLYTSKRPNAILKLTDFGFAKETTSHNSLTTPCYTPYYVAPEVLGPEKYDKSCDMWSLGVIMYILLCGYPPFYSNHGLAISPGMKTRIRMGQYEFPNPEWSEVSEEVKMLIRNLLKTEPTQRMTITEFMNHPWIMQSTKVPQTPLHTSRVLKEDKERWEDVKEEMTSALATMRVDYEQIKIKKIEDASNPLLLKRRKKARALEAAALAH
Experimental: as §1

[2] = read-out: Residual activity (%) 5at
[3] = read-out: Residual activity (%) 5as
[4] = read-out: Residual activity (%) 5ay
[5] = read-out: Residual activity (%) Spautin-1 5aa

**Q.** What does the source list for Fc1ccc2ncnc(NCCc3ccc(Cl)cc3)c2c1 [5at, N-[2-(4-Chlorophenyl)Ethyl]-6-Fluoro-4-Quinazolinamine]?
**A.** remaining activity at 10 µM (ULK2(h); [2]): 94%; remaining activity at 10 µM [1, 2]: 80%; remaining activity at 10 µM (TBK1(h); [2]): 108%; remaining activity at 10 µM (MRCKα(h); [2]): 98%; remaining activity at 10 µM (HIPK1(h); [2]): 103%; remaining activity at 10 µM (MAPKAP-K2(h); [2]): 97%

**Q.** What does the source list for Fc1ccc(CCNc2ncnc3ccc(F)cc23)cc1 [5as, 6-Fluoro-N-[2-(4-Fluorophenyl)Ethyl]-4-Quinazolinamine]?
**A.** remaining activity at 10 µM (ULK2(h); [3]): 93%; remaining activity at 10 µM [1, 3]: 84%; remaining activity at 10 µM (TBK1(h); [3]): 108%; remaining activity at 10 µM (MRCKα(h); [3]): 93%; remaining activity at 10 µM (HIPK1(h); [3]): 120%; remaining activity at 10 µM (MAPKAP-K2(h); [3]): 85%

**Q.** COc1ccc2ncnc(Nc3cccc(F)c3)c2c1 [5ay, N-(3-Fluorophenyl)-6-Methoxy-4-Quinazolinamine] was tested. Which remaining activity at 10 µM (ULK2(h); [4]) did it give?
**A.** 97%

**Q.** And the remaining activity at 10 µM [1, 4]?
**A.** 96%

**Q.** What about the remaining activity at 10 µM (TBK1(h); [4]) of the same compound?
**A.** 117%

**Q.** And the remaining activity at 10 µM (MRCKα(h); [4])?
**A.** 87%

**Q.** What about the remaining activity at 10 µM (HIPK1(h); [4]) of the same compound?
**A.** 78%

**Q.** What about the remaining activity at 10 µM (MAPKAP-K2(h); [4]) of the same compound?
**A.** 80%

**Q.** How did the remaining activity at 10 µM (ULK2(h); [5]) turn out when Fc1ccc(CNc2ncnc3ccc(F)cc23)cc1 [5aa, 6-Fluoro-N-(4-fluorobenzyl)-4-Quinazolinamine] was run?
**A.** 101%

**Q.** What about the remaining activity at 10 µM [1, 5] of the same compound?
**A.** 93%

**Q.** And the remaining activity at 10 µM (TBK1(h); [5])?
**A.** 126%

**Q.** What about the remaining activity at 10 µM (MRCKα(h); [5]) of the same compound?
**A.** 91%

**Q.** What about the remaining activity at 10 µM (HIPK1(h); [5]) of the same compound?
**A.** 94%

**Q.** What about the remaining activity at 10 µM (MAPKAP-K2(h); [5]) of the same compound?
**A.** 79%
